According to patent US20240226225A1 (Protagonist Therapeutics, Inc., priority 2021, published 2024):
Starred links: 1 amine or outer side, 2 acyl side, 3 side chain; linkers in the order of their positions; H or OH if unused. Positions of bridges follow the written chain, without caps; N, C: chain ends. Non-standard residues stand in square brackets, D forms with d. Residues, ends and D or L forms follow the SMILES beside them. Groups on a side chain read outwards from the residue. *: point of attachment. PEG12 = NCCOCCOCCOCCOCCOCCOCCOCCOCCOCCOCCOCCOCCC(=O)O; Ala(1H-tetrazol-5-yl) = N[C@@H](Cc1nnn[nH]1)C(=O)O; Phe(3,4-Cl2) = N[C@@H](Cc1ccc(Cl)c(Cl)c1)C(=O)O; Phe(2,4-Cl2) = N[C@@H](Cc1ccc(Cl)cc1Cl)C(=O)O; Phe(3,5-F2) = N[C@@H](Cc1cc(F)cc(F)c1)C(=O)O; C18 diacid = O=C(O)CCCCCCCCCCCCCCCCC(=O)*; Dip = N[C@H](C(=O)O)C(c1ccccc1)c1ccccc1; γGlu = O=C(O)[C@H](CCC(=O)[*:2])N[*:1]; Palmitoyl = CCCCCCCCCCCCCCCC(=O)*; β3hF = N[C@H](CC(=O)O)Cc1ccccc1; Isovaleryl = CC(C)CC(=O)*; AEEA = NCCOCCOCC(=O)O

What follows are compounds tested against T1, ferroportin (Homo sapiens, UniProt Q9NP59) (assay: FPN activity assay: internalization/degradation of ferroportin-GFP in stably transfected HEK293 cells, decrease in GFP fluorescence). Conditions: HEK293 cells stably expressing ferroportin-GFP, at least 18 hours incubation; read-out: FPN EC50.
T1 sequence (Q9NP59 1-571): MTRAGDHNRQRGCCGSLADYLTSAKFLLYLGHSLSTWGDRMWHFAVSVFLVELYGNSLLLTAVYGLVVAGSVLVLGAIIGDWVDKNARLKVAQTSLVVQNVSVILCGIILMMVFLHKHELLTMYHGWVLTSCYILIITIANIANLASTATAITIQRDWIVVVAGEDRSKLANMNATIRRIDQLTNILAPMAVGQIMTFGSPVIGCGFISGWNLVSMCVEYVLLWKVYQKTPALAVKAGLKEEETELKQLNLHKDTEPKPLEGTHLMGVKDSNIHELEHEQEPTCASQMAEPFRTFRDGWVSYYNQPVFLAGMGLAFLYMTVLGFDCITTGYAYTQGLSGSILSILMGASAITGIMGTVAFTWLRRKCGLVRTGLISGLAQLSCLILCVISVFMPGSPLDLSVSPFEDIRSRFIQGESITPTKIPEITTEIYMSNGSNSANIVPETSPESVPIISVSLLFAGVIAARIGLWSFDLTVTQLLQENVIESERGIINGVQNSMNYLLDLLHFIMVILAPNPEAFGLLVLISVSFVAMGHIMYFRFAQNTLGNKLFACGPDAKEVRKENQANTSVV
Format: cell-based
Design: expressed in transfected cells

Compound	DC50 [nM]
CCCCCCCCCCCCCCCC(=O)NCCOCCOCCOCCOCCOCCOCCOCCOCCOCCOCCOCCOCCC(=O)NCCCC[C@@H]1NC(=O)[C@H]([C@@H](C)CC)NC(=O)[C@@H](NC(=O)[C@@H]2CCCN2C(=O)[C@@H](NC(=O)[C@H](Cc2c[nH]cn2)NC(=O)[C@@H](NC(=O)[C@H](Cc2nn[nH]n2)NC(=O)CC(C)C)[C@@H](C)O)C(c2ccccc2)c2ccccc2)CSSC[C@@H](C(N)=O)NC(=O)[C@@H](CCCCN)NC(=O)C[C@H](Cc2ccccc2)NC1=O [Compd 1, Isovaleric Acid-[Tet1]-T-H-[Dpa]-P-[Cys]-I-[Lys(PEG12_Palm)]-[bhPhe]-[(D)Lys]-[Cys]-NH2] (Isovaleryl-[Ala(1H-tetrazol-5-yl)]TH[Dip]PCIK([PEG12-Palmitoyl])[β3hF][dK]C-NH2; disulfide 6-11)	10 to 100
CC[C@H](C)[C@@H]1NC(=O)[C@@H](NC(=O)[C@@H]2CCCN2C(=O)[C@H](Cc2ccccc2)NC(=O)[C@H](Cc2c[nH]cn2)NC(=O)[C@@H](NC(=O)[C@H](Cc2nn[nH]n2)NC(=O)CC(C)C)[C@@H](C)O)CSSC[C@@H](C(=O)N[C@@H](CCCCN)C(N)=O)NC(=O)CNC(=O)[C@H](CCCCN)NC(=O)[C@H](CO)NC(=O)[C@H](CCCNC(=N)N)NC(=O)[C@@H]2CCCN2C(=O)[C@H](CCC(=O)O)NC(=O)[C@H](Cc2ccccc2)NC(=O)[C@H](CCCCNC(=O)COCCOCCNC(=O)COCCOCCNC(=O)CC[C@H](NC(=O)CCCCCCCCCCCCCCCCC(=O)O)C(=O)O)NC1=O [Compd 3, Isovaleric Acid-[Tet1]-T-H-F-P-[Cys]-I-[Lys(1PEG2_1PEG2_IsoGlu_C18_Diacid)]-F-E-P-R-S-K-G-[Cys]-K-NH2] (Isovaleryl-[Ala(1H-tetrazol-5-yl)]THFPCIK([AEEA-AEEA-γGlu-C18 diacid])FEPRSKGCK-NH2; disulfide 6-16)	10 to 100
CC[C@H](C)[C@@H]1NC(=O)[C@@H](NC(=O)[C@@H]2CCCN2C(=O)[C@H](Cc2cc(F)cc(F)c2)NC(=O)[C@H](Cc2c[nH]cn2)NC(=O)[C@@H](NC(=O)[C@H](Cc2nn[nH]n2)NC(=O)CC(C)C)[C@@H](C)O)CSSC[C@@H](C(N)=O)NC(=O)[C@@H](CCCCN)NC(=O)C[C@H](Cc2ccccc2)NC(=O)[C@H](CCCCNC(=O)COCCOCCNC(=O)COCCOCCNC(=O)CC[C@H](NC(=O)CCCCCCCCCCCCCCCCC(=O)O)C(=O)O)NC1=O [Compd 19, Isovaleric Acid-[Tet1]-T-H-[Phe_35diF]-P-[Cys]-I-[Lys(1PEG2_1PEG2_IsoGlu_C18_Diacid)]-[bhPhe]-[(D)Lys]-[Cys]-NH2] (Isovaleryl-[Ala(1H-tetrazol-5-yl)]TH[Phe(3,5-F2)]PCIK([AEEA-AEEA-γGlu-C18 diacid])[β3hF][dK]C-NH2; disulfide 6-11)	100 to 500
CC[C@H](C)[C@@H]1NC(=O)[C@@H](NC(=O)[C@@H]2CCCN2C(=O)[C@H](Cc2ccc(Cl)c(Cl)c2)NC(=O)[C@H](Cc2c[nH]cn2)NC(=O)[C@@H](NC(=O)[C@H](Cc2nn[nH]n2)NC(=O)CC(C)C)[C@@H](C)O)CSSC[C@@H](C(N)=O)NC(=O)[C@@H](CCCCN)NC(=O)C[C@H](Cc2ccccc2)NC(=O)[C@H](CCCCNC(=O)COCCOCCNC(=O)COCCOCCNC(=O)CC[C@H](NC(=O)CCCCCCCCCCCCCCCCC(=O)O)C(=O)O)NC1=O [Compd 25, Isovaleric Acid-[Tet1]-T-H-[Phe_34diCl]-P-[Cys]-I-[Lys(1PEG2_1PEG2_IsoGlu_C18_Diacid)]-[bhPhe]-[(D)Lys]-[Cys]-NH2] (Isovaleryl-[Ala(1H-tetrazol-5-yl)]TH[Phe(3,4-Cl2)]PCIK([AEEA-AEEA-γGlu-C18 diacid])[β3hF][dK]C-NH2; disulfide 6-11)	100 to 500
CC[C@H](C)[C@@H]1NC(=O)[C@@H](NC(=O)[C@@H]2CCCN2C(=O)[C@H](Cc2ccc(Cl)cc2Cl)NC(=O)[C@H](Cc2c[nH]cn2)NC(=O)[C@@H](NC(=O)[C@H](Cc2nn[nH]n2)NC(=O)CC(C)C)[C@@H](C)O)CSSC[C@@H](C(N)=O)NC(=O)[C@@H](CCCCN)NC(=O)C[C@H](Cc2ccccc2)NC(=O)[C@H](CCCCNC(=O)COCCOCCNC(=O)COCCOCCNC(=O)CC[C@H](NC(=O)CCCCCCCCCCCCCCCCC(=O)O)C(=O)O)NC1=O [Compd 26, Isovaleric Acid-[Tet1]-T-H-[Phe_24diCl]-P-[Cys]-I-[Lys(1PEG2_1PEG2_IsoGlu_C18_Diacid)]-[bhPhe]-[(D)Lys]-[Cys]-NH2] (Isovaleryl-[Ala(1H-tetrazol-5-yl)]TH[Phe(2,4-Cl2)]PCIK([AEEA-AEEA-γGlu-C18 diacid])[β3hF][dK]C-NH2; disulfide 6-11)	100 to 500
CC[C@H](C)[C@@H]1NC(=O)[C@@H](NC(=O)[C@@H]2CCCN2C(=O)[C@@H](NC(=O)[C@H](Cc2c[nH]cn2)NC(=O)[C@@H](NC(=O)[C@H](Cc2nn[nH]n2)NC(=O)CC(C)C)[C@@H](C)O)C(c2ccccc2)c2ccccc2)CSSC[C@@H](C(=O)O)NC(=O)C[C@H](Cc2ccccc2)NC(=O)[C@H](CCCCNC(=O)COCCOCCNC(=O)COCCOCCNC(=O)CC[C@H](NC(=O)CCCCCCCCCCCCCCCCC(=O)O)C(=O)O)NC1=O [Compd 37, Isovaleric Acid-[Tet1]-T-H-[Dpa]-P-[Cys]-I-[Lys(1PEG2_1PEG2_IsoGlu_C18_Diacid)]-[bhPhe]-[Cys]] (Isovaleryl-[Ala(1H-tetrazol-5-yl)]TH[Dip]PCIK([AEEA-AEEA-γGlu-C18 diacid])[β3hF]C-OH; disulfide 6-10; C-terminus assumed)	> 500
CC[C@H](C)[C@@H]1NC(=O)[C@@H](NC(=O)[C@@H]2CCCN2C(=O)[C@@H](NC(=O)[C@H](Cc2c[nH]cn2)NC(=O)[C@@H](NC(=O)[C@H](Cc2nn[nH]n2)NC(=O)CCCN)[C@@H](C)O)C(c2ccccc2)c2ccccc2)CSSC[C@@H](C(N)=O)NC(=O)[C@@H](CCCCN)NC(=O)C[C@H](Cc2ccccc2)NC(=O)[C@H](CCCCNC(=O)COCCOCCNC(=O)COCCOCCNC(=O)CC[C@H](NC(=O)CCCCCCCCCCCCCCCCC(=O)O)C(=O)O)NC1=O [Compd 38, Gaba-[Tet1]-T-H-[Dpa]-P-[Cys]-I-[Lys(1PEG2_1PEG2_IsoGlu_C18_Diacid)]-[bhPhe]-[(D)Lys]-[Cys]-NH2]	> 500
CC[C@H](C)[C@@H]1NC(=O)[C@@H](NC(=O)[C@@H]2CCCN2C(=O)[C@@H](NC(=O)[C@H](Cc2c[nH]cn2)NC(=O)[C@@H](NC(=O)[C@H](Cc2nn[nH]n2)NC(=O)CCCCN)[C@@H](C)O)C(c2ccccc2)c2ccccc2)CSSC[C@@H](C(N)=O)NC(=O)[C@@H](CCCCN)NC(=O)C[C@H](Cc2ccccc2)NC(=O)[C@H](CCCCNC(=O)COCCOCCNC(=O)COCCOCCNC(=O)CC[C@H](NC(=O)CCCCCCCCCCCCCCCCC(=O)O)C(=O)O)NC1=O [Compd 39, 5 AminoPentanoicAcid-[Tet1]-T-H-[Dpa]-P-[Cys]-I-[Lys(1PEG2_1PEG2_IsoGlu_C18_Diacid)]-[bhPhe]-[(D)Lys]-[Cys]-NH2]	> 500
CC[C@H](C)[C@@H]1NC(=O)[C@@H](NC(=O)[C@@H]2CCCN2C(=O)[C@@H](NC(=O)[C@H](Cc2cnc[nH]2)NC(=O)[C@@H](NC(=O)[C@H](CC2N=NN=N2)NC(=O)c2ccccc2)[C@@H](C)O)C(c2ccccc2)c2ccccc2)CSSC[C@@H](C(N)=O)NC(=O)[C@@H](CCCCN)NC(=O)C[C@H](Cc2ccccc2)NC(=O)[C@H](CCCCNC(=O)COCCOCCNC(=O)COCCOCCNC(=O)CC[C@H](NC(=O)CCCCCCCCCCCCCCCCC(=O)O)C(=O)O)NC1=O [Compd 42, Benzyl-[Tet1]-T-H-[Dpa]-P-[Cys]-I-[Lys(1PEG2_1PEG2_IsoGlu_C18_Diacid)]-[bhPhe]-[(D)Lys]-[Cys]-NH2]	10 to 100
CCCCCCCCCCCCCCCC(=O)NCCOCCOCCOCCOCCOCCOCCOCCOCCOCCOCCOCCOCCC(=O)NCCCC[C@@H]1NC(=O)[C@H](Cc2ccccc2)NC(=O)[C@H](CCCCN)NC(=O)[C@H]([C@@H](C)CC)NC(=O)[C@@H](NC(=O)[C@@H]2CCCN2C(=O)[C@H](Cc2ccccc2)NC(=O)[C@H](Cc2c[nH]cn2)NC(=O)[C@@H](NC(=O)[C@H](CC(=O)O)NC(=O)CC(C)C)[C@@H](C)O)CSSC[C@@H](C(=O)N[C@@H](CCCCN)C(N)=O)NC(=O)CNC(=O)[C@H](CCCCN)NC(=O)[C@H](CO)NC(=O)[C@H](CCCNC(=N)N)NC(=O)[C@@H]2CCCN2C1=O [compound 1, reference compound]	10 to 100

Each compound was assayed against T1, ferroportin (assay: T47D cell-based ferroportin internalization assay in presence of 0.5% mouse serum albumin (MSA), AF647-conjugated detection peptide, flow cytometry). Conditions: T47D cells, 1 hr incubation.
Design: a human breast carcinoma adherent cell line which endogenously expresses ferroportin; host or cells: T47D
Protocol: The potency of the peptides in causing ferroportin internalization was evaluated in a T47D cell-based assay. […] In this internalization assay, the potency of the test peptides was evaluated in presence of serum albumin which is the main protein component in the blood. T47D cells were maintained in RPMI media (containing required amount of fetal bovine serum) and regularly sub-cultured. In preparation for the assay, the cells were seeded in 96-well plates at a density of 80-100 k cells per well in 100 ul volume and allowed to rest overnight. On the next day, test peptides were first prepared in dilution series (10-point series, starting concentration of ˜5 μM, typically 3-4×fold dilution steps), all with 0.5% mouse serum albumin (MSA purified from mouse serum; Sigma, A3139). The test peptide dilution series were allowed to incubate at room temperature for 30 min. Then the media was aspirated from the 96-well cell plate and test peptide dilution series were added. After 1 hr incubation, the media with test peptides was aspirated out and AF647-conjugated detection peptide was added at fixed concentration of 200 nM. The AF647-conjugated detection peptide was previously verified to bind to ferroportin and cause its internalization. The cells were washed again after a 2 hr incubation in preparation for flow cytometry analysis. The Median Fluorescence Intensity (MFI) of the AF647-positive population was measured (after removing dead cells and non-singlets from the analysis). The MFI values were used to generate a dose-response curve and obtain IC50 potencies for the test peptides. The IC50 potencies were calculated by using 4-parameter non-linear fitting function in Graphpad Prism (Table 2A).

Compound	IC50 [nM]
CCCCCCCCCCCCCCCC(=O)NCCOCCOCCOCCOCCOCCOCCOCCOCCOCCOCCOCCOCCC(=O)NCCCC[C@@H]1NC(=O)[C@H]([C@@H](C)CC)NC(=O)[C@@H](NC(=O)[C@@H]2CCCN2C(=O)[C@@H](NC(=O)[C@H](Cc2c[nH]cn2)NC(=O)[C@@H](NC(=O)[C@H](Cc2nn[nH]n2)NC(=O)CC(C)C)[C@@H](C)O)C(c2ccccc2)c2ccccc2)CSSC[C@@H](C(N)=O)NC(=O)[C@@H](CCCCN)NC(=O)C[C@H](Cc2ccccc2)NC1=O [Compd 1, Isovaleric Acid-[Tet1]-T-H-[Dpa]-P-[Cys]-I-[Lys(PEG12_Palm)]-[bhPhe]-[(D)Lys]-[Cys]-NH2] (Isovaleryl-[Ala(1H-tetrazol-5-yl)]TH[Dip]PCIK([PEG12-Palmitoyl])[β3hF][dK]C-NH2; disulfide 6-11)	1 to 10
